Measured values reported in publication PMC6556873, “Rapid Covalent-Probe Discovery by Electrophile-Fragment Screening” (Journal of the American Chemical Society, 2019).
Read-outs that look alike come from different tables or passages of the source.

Experiments:
in vitro [1] = assay: in vitro; design: species or system HB2, HEK293; conditions: human, ccd841 cells
in vitro [2] = assay: in vitro; design: species or system HB2, CCD841; conditions: human, hek293 cells
in vitro [3] = assay: in vitro; design: species or system CCD841, HEK293; conditions: human, hb2 cells, read-out: HB-2 Cells Viability (%)
NUDT7 = molecular target: T1, NUDT7 (Homo sapiens, UniProt P0C024); design: Intact protein LC/MS covalent labelling, fragments in pools of five, 200 uM each, 4 °C; conditions: 24 h, 4 °C, pool of five; 200 µM; covalent
T1 construct: residues 14-235, E. coli, pNIC28-Bsa4, N-terminal His6 tag removed by TEV, construct 26672 Da
T1 sequence (P0C024 14-235): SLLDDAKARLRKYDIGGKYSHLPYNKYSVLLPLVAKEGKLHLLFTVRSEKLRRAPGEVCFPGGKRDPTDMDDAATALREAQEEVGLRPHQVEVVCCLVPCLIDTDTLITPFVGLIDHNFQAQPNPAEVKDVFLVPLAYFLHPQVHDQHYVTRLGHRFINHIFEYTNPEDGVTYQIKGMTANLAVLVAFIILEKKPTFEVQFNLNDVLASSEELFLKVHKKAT

PCAF = molecular target: T2, PCAF (Homo sapiens, UniProt Q92831); design: Intact protein LC/MS covalent labelling, fragments in pools of five, 200 uM each, 4 °C; conditions: 24 h, 4 °C, pool of five; 200 µM; covalent
T2 construct: gene KAT2B
T2 sequence (Q92831 whole entry, the tested form may be a part): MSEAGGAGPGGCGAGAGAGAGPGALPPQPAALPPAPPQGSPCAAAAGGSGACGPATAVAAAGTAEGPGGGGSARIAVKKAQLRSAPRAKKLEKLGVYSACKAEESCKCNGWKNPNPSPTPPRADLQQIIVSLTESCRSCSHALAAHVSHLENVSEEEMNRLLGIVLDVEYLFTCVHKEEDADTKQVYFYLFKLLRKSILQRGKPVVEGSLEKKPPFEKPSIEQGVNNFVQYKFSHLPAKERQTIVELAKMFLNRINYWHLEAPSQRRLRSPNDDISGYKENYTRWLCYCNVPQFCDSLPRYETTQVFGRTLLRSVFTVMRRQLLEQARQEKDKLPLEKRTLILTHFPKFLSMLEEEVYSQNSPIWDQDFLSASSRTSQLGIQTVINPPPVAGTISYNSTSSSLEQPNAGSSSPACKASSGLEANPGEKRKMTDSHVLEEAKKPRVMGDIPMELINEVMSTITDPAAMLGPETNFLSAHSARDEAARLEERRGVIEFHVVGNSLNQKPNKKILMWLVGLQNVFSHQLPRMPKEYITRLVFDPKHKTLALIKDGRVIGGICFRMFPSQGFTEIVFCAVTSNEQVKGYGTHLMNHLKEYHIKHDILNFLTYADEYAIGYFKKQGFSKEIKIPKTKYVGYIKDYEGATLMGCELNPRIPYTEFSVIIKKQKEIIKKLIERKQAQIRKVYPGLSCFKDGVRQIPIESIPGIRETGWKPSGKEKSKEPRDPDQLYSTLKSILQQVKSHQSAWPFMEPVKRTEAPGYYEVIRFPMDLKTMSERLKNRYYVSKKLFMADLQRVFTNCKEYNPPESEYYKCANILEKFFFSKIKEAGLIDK

BSA = molecular target: T3, BSA (Bos taurus, UniProt P02769); design: Intact protein LC/MS covalent labelling, fragments in pools of five, 200 uM each, 4 °C; conditions: 24 h, 4 °C, pool of five; 200 µM; covalent
T3 construct: gene ALB
T3 sequence (P02769 whole entry, the tested form may be a part): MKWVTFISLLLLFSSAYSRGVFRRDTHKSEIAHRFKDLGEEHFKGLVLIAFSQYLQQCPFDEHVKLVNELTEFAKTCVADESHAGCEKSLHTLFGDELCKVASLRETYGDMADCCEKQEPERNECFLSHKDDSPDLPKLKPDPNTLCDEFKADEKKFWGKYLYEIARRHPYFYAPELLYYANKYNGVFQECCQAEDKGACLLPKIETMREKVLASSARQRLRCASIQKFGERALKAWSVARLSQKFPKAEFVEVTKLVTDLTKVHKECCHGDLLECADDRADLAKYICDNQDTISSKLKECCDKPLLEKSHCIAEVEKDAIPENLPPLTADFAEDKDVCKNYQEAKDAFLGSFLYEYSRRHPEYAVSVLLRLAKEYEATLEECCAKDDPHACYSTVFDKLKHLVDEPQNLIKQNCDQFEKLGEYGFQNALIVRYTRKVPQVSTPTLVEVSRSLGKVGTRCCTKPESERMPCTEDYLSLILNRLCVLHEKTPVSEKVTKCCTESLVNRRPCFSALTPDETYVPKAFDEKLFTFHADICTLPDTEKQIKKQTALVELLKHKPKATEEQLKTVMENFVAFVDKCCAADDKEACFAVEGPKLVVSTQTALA

OTUB2 (OTUB2A) = molecular target: T4, OTUB2 (OTUB2A) (Homo sapiens, UniProt Q96DC9); design: Intact protein LC/MS covalent labelling, fragments in pools of five, 200 uM each, 4 °C; conditions: 24 h, 4 °C, pool of five; 200 µM; covalent
T4 construct: full length residues 1-234, E. coli BL21(DE3)-R3, His tag removed by TEV, construct 27312 Da
T4 sequence (Q96DC9 1-234): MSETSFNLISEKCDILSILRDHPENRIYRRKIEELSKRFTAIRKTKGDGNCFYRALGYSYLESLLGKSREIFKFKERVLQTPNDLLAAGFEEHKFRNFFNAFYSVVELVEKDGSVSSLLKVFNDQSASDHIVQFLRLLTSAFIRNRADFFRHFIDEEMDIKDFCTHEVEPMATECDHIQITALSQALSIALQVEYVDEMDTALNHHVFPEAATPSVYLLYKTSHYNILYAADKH

| SMILES | viability at 48 h, 10 µM (in vitro [1]) [%] | viability at 48 h, 10 µM (in vitro [2]) [%] | viability at 48 h, 10 µM (in vitro [3]) [%] | NUDT7 (NUDT7) | PCAF (PCAF) | BSA (BSA) | OTUB2 (OTUB2 (OTUB2A)) |
| --- | --- | --- | --- | --- | --- | --- | --- |
| C=CC(=O)N1CCN(C)CC1 [PCM-0102634] | 114 | 131 | 99.6 | 0 | 0 | 0 | 0 |
| CN1CCN(C(=O)CCl)CC1 [PCM-0102921] | 109 | 90.1 | 102 | 0 | 0 | 0 | 0 |
| C=CC(=O)NCc1snnc1C [PCM-0103079] | 102 | 97 | 104 | 0 | 0 | 0 | 0 |
| O=C1CN(C(=O)CCl)CCN1 [PCM-0103008] | 92.8 | 86.5 | 95.3 | 0 | 0 | 0 | 0 |
| C=CC(=O)Nc1ccc(Cl)c(C#N)c1 [PCM-0102453] | 86.4 | 59.5 | 85.7 | 0 | 0 | 0 | 0 |
| O=C(CCl)NC(=O)c1ccco1 [PCM-0102195] | 109 | 87.3 | 98 | 0 | 0 | 0 | 0 |
| O=C(CCl)N1N=C(c2cccs2)CC1c1ccco1 (stereo not drawn) [PCM-0102295] | 7.9 | 1.4 | 5 | 0.46 | 0 | 0 | 0.06 |
| O=C(CCl)Nc1cccc2ccccc12 [PCM-0102396] | 55.8 | 2.4 | 16.3 | 0.12 | 0 | 0 | 0.54 |
| O=C(CCl)N(CC(F)(F)F)c1ccc(Cl)cc1 [PCM-0102155] | 3.5 | 4.3 | 11.2 | 0.79 | 0 | 0 | 0 |
| NC(=O)C1CCCN(C(=O)CCl)C1 (stereo not drawn) [PCM-0102495] | 93 | 81.7 | 92.7 | 0 | 0 | 0 | 0 |
| O=C(CCl)Nc1cccc2c1N=S=N2 [PCM-0102329] | 50.1 | 19.9 | 38.2 | 0 | 0 | 0 | 0 |
| O=C(CCl)N1CCc2sccc2C1c1ccccc1 (stereo not drawn) [PCM-0103024] | 3 | 1.9 | 4.6 | 0.69 | 0 | 0 | 0 |
| C=CC(=O)Nc1ccc(Br)cc1 [PCM-0102191] | 88.9 | 65.6 | 91.3 | 0.09 | 0 | 0 | 0 |
| O=C(CCl)Nc1cccc(-c2nnc3n2CCCCC3)c1 [PCM-0102181] | 73.2 | 39.2 | 51.2 | 0 | 0 | 0 | 0 |
| O=C(CCl)Nc1ccc(Br)cc1Cl [PCM-0102505] | 74.6 | 31.6 | 41.7 | 0.59 | 0 | 0 | 0.07 |
| CC(C)N(CC(F)(F)F)C(=O)CCl [PCM-0102516] | 109 | 106 | 103 | 0 | 0 | 0 | 0 |
| C=CC(=O)NC1CCN(C(=O)NCC)C1 (stereo not drawn) [PCM-0103058] | 93.3 | 109 | 94.4 | 0 | 0 | 0 | 0 |

| SMILES | viability at 48 h, 10 µM (in vitro [1]) [%] | viability at 48 h, 10 µM (in vitro [2]) [%] | viability at 48 h, 10 µM (in vitro [3]) [%] | NUDT7 (NUDT7) | PCAF (PCAF) | BSA (BSA) | OTUB2 (OTUB2 (OTUB2A)) |
| --- | --- | --- | --- | --- | --- | --- | --- |
| C=CC(=O)N1CCN(C(=O)OC(C)(C)C)CC1 [PCM-0102419] | 104 | 90.3 | 100 | 0.16 | 0 | 0 | 0 |
| N#CC(c1ccccc1)N1CCN(C(=O)CCl)CC1 (stereo not drawn) [PCM-0102381] | 66.2 | 31.9 | 46.7 | 0.11 | 0 | 0 | 0 |
| CC(c1ccc(Cl)cc1)N(C)C(=O)CCl (stereo not drawn) [PCM-0102556] | 11.5 | 3.1 | 4.9 | 0.39 | 0 | 0 | 0 |
| Cc1nc(-c2ccc3c(c2)CCN3C(=O)CCl)cs1 [PCM-0102901] | 22.6 | 1.2 | 2.3 | 0.46 | 0 | 0 | 0 |
| O=C(CCl)NC(=O)NC1CCCC1 [PCM-0103001] | 80.2 | 66.7 | 66.4 | 0 | 0 | 0 | 0 |
| O=C(CCl)NC(=O)NC1CC1 [PCM-0102411] | 84.9 | 109 | 96.7 | 0 | 0 | 0 | 0 |
| O=C(CCl)NNC(=O)C1CCC1 [PCM-0103061] | 30.9 | 2.3 | 8.2 | 0.28 | 0 | 0 | 0.14 |
| O=C(NC1CCN(C(=O)CCl)CC1)c1ccccc1 [PCM-0102575] | 68.2 | 40.6 | 63.8 | 0.09 | 0 | 0 | 0.09 |
| C=CC(=O)N1CC(OC(=O)Nc2cccc(F)c2)C1 [PCM-0102688] | 99 | 95.8 | 82.3 | 0 | 0 | 0 | 0.17 |
| CN(C(=O)CCl)C1(C#N)CCCCC1 [PCM-0102916] | 47.6 | 7.5 | 38 | 0 | 0 | 0 | 0 |
| O=C(CCl)N1CCCC(c2nc3ccccc3s2)C1 (stereo not drawn) [PCM-0102425] | 3.5 | 9.4 | 4.1 | 0.28 | 0 | 0 | 0 |
| C=CC(=O)N(C1CC1)C1CC(=O)NC1=O (stereo not drawn) [PCM-0102646] | 98.4 | 94.9 | 103 | 0 | 0 | 0 | 0 |
| C=CC(=O)N1CCCC2(CCS(=O)(=O)C2)C1 (stereo not drawn) [PCM-0102600] | 121 | 98.9 | 107 | 0.05 | 0 | 0 | 0 |
| C=CC(=O)N1CCCC(c2nnc3ccc(C(F)(F)F)cn23)C1 (stereo not drawn) [PCM-0102606] | 111 | 126 | 107 | 0 | 0 | 0 | 0 |
| O=C(CCl)N1CCN(S(=O)(=O)c2ccc(F)c(F)c2)CC1 [PCM-0102361] | 48.1 | 5.4 | 2.5 | 0 | 0 | 0 | 0 |
| O=C(CCl)N1N=C(c2ccco2)CC1c1ccco1 (stereo not drawn) [PCM-0102380] | 63.4 | 40.4 | 55.7 | 0.54 | 0 | 0 | 0 |
